Assay results as given in patent publication US20220008402A1, “INCREASED E-CADHERIN EXPRESSION OR ACTIVITY FOR THE TREATMENT OF INFLAMMATORY DISEASES” (The Cleveland Clinic Foundation, priority 2020, published 2022).
“Also recorded” adds a separate entry of the source.

Key:
[1] = tested on: E-cadherin; conditions: literature reports; cited from earlier work
[2] = tested on: HT-29 cF8 cell monolayers; experiment: Epithelial barrier permeability in vitro (TEER, FITC-dextran flux), steady state; assay type: cell-based, human; conditions: 10 μM
Experimental: (§1) FIG. 1: E-cadherin-enhancing drugs decrease ionic permeability of model colonic epithelial cell monolayers. Confluent T84 (A), HT-29cF8 (B) and SK-0015 (C) cell monolayers were treated for indicated times with either vehicle, E-cadherin upregulator (ECU, 10 μM), or ML327 (10 μM). Transepithelial electrical resistance (TEER) of the cell monolayers was measured before and during the drug treatment. Data is presented as mean ±SE (n=3); *P<0.05.
(§2) FIG. 2: E-cadherin-enhancing drugs decrease colonic epithelial permeability to large molecules. Confluent T84 (A), HT-29cF8 (B) and SK-C015 (C) cell monolayers were treated with either vehicle, ECU, or ML327, as described in the FIG. 1 legend. Trans-monolayer flux of FITC-dextran was determined at the end of the drug treatment. Data is presented as mean ±SE (n=3); **P<0.05 ***P<0.01.
(§3) Transepithelial electrical resistance (TEER) of cultured T84, HT-29 and SK-C015 intestinal epithelial cell monolayers was measured using an EVOMX voltohmmeter (World Precision Instruments, Sarasota, Fla.). Cells were plated on collagen-coated transwell filters (pore size 3 μm, Thermo-Fisher). The resistance of cell-free collagen-coated filters was subtracted from each experimental point. An in vitro dextran flux assay was performed by a following commonly-used protocol. Intestinal epithelial cell monolayers growing on transwell filters were apically exposed to 1 mg/ml of FITC-labeled dextran (4,000 Da) in HEPES-buffered Hanks balanced salt solution (HBSS). After 120 min of incubation, HBSS samples were collected from the lower chamber, and FITC fluorescence intensity was measured using a Victor^3 V plate reader (Perkin Elmer, Waltham, Mass.) with excitation and emission wavelengths 485 and 544 nm, respectively. After subtracting the fluorescence of dextran-free HBSS the amount of FITC dextran translocated across the epithelial cell monolayer was calculated based on a calibration curve using Prism 5 software (GraphPad, La Jolla, Calif.).
(§4) One set of experiments examined the effects of E-cadherin upregulator (ECU) and ML327 on the barrier properties of normal model intestinal epithelial cell monolayers. Three different human colonic epithelial cell lines, namely, T84, SK-0015 and HT-29 cF8 cells, were used. Cells were plated on collagen-coated transwell filters and allowed to reach confluency and differentiate for 5-7 days after plating. Thereafter, cell monolayers were exposed to either ECU (10 μM), ML327 (10 μM) or vehicle (DMSO). Transepithelial electrical resistance (TEER) was measured before and at different times after addition of E-cadherin-enhancing drugs. A transepithelial flux of FITC-dextran was examined at the end of the drug exposure to evaluate epithelial permeability to large uncharged molecules.

[3] = tested on: SK-0015 cell monolayers; experiment: as above; assay type: cell-based, human; conditions: 10 μM
Experimental: as §1, §2, §3, §4

[4] = tested on: T84 cell monolayers; experiment: as above; assay type: cell-based, human; conditions: 10 μM
Experimental: as §1, §2, §3, §4

[5] = tested on: T84 cell monolayers; experiment: Cytokine (TNFα/IFNγ)-induced disruption of the epithelial barrier (TEER, FITC-dextran flux); assay type: cell-based, human; conditions: 10 μM pretreatment 24 h, then TNFα 10 ng/ml + IFNγ 50 ng/ml, 48 h
Experimental: (§5) Confluent T84 cell monolayers were pretreated with either vehicle, or ECU (10 μM) for 24 h. Afterwards, cells were exposed to a combination of TNFα (10 ng/ml) and IFNγ (50 ng/ml) with and without ECU. (A) TEER was measured at the indicated times. (B) FITC-dextran flux was examined after 48 h incubation with cytokines. Data is presented as mean ±SE (n=3); ***P<0.001.
as §5, with “ML327” for “ECU”, “hours.” for “h.”, “ML327.” for “ECU.”, “(n=3); **P<0.05,” for “(n=3);”
as §3
A combination of two cytokines were selected: tumor necrosis factor alpha (TNFα, 10 ng/ml) and interferon-gamma (IFNγ, 50 ng/ml), which are known to compromise barrier integrity and trigger apical junction disassembly in cultured epithelial cell monolayers and intestinal mucosa in mice. Indeed, 48 hour incubation of well-differentiated T84 cell monolayers with TNFα and IFNγ caused a dramatic decrease in TEER (FIGS. 3A, 4A) and increase in transepithelial dextran flux (FIGS. 3B, 4B), which indicates the increase in barrier permeability. […] Next, it was examined if ECU protects epithelial adherens junctions (AJ) and tight junctions (TJ) from cytokine-induced disassembly. Immunofluorescence labeling of a specific AJ marker, E-cadherin, and a TJ marker, ZO-1, was used to visualize structure of different junctional complexes. […]

[6] = tested on: T84 cell monolayers; experiment: Wound healing assay; assay type: cell-based, human; conditions: 10 μM pretreatment 24 h, migration 24-48 hours
Experimental: FIG. 8: E-cadherin-enhancing drug promote collective migration of intestinal epithelial cells. Confluent T84 cell monolayers were pretreated with either vehicle, ECU (10 μM) or ML327 (10 μM) for 24 hours. Afterwards, cell monolayers were wounded and allowed to migrate into wound area in the presence of the drugs. Cell monolayers were photographed and wound closure was calculated at the indicated times. Data is presented as mean ±SE (n=3); **P<0.05, ***P<0.01.
Confluent epithelial cell monolayers were mechanically wounded by making a thin scratch wound with a 200 μl pipette tip. The bottom of the well was marked to define the position of the wound and the monolayers were supplied with fresh cell culture medium. The images of a cell-free area at the marked region were acquired at the indicated times after wounding using an inverted bright field microscope equipped with a camera. The percentage of wound closure was calculated using an Image J software (NIH, Bethesda, Md.).
Finally, the effects of E-cadherin-enhancing drugs on epithelial restitution (wound healing) were examined. This is an important question given the fact that epithelial wounds are frequently formed in inflamed intestinal mucosa of IBD patients and wound healing is necessary to restore the integrity of the gut barrier and to achieve remission of chronic inflammatory diseases. […]

[7] = tested on: T84 cell monolayers; experiment: Immunoblotting of signaling molecules after multiple wounding; assay type: cell-based, human; conditions: 10 μM pretreatment 24 h; lysates 12 and 24 h post-wounding
Experimental: Confluent T84 cell monolayers were pretreated with either vehicle, ECU (10 μM), or ML327 (10 μM), for 24 h, and were subjected to multiple wounding. Total cell lysates were collected at 12 and 24 h post-wounding, and the expression of different signaling molecules was determined by immunoblotting. Representative immunoblots (A) and densitometric quantification of protein band intensities from three independent experiments (B) are shown. Data are presented as a mean ±SE (n=3); *p<0.05; **p<0.01.
To prepare total cell lysates, epithelial cell monolayers were scraped and homogenized using a Dounce homogenizer in RIPA buffer (20 mM Tris, 50 mM NaCl, 2 mM EDTA, 2 mM EGTA, 1% sodium deoxycholate, 1% Triton X-100 (TX-100), and 0.1% SDS, pH 7.4) containing protease inhibitor cocktail and phosphatase inhibitor cocktails 2 and 3 (Sigma-Aldrich). The obtained total cell lysates were cleared by centrifugation (20 min at 14,000×g), diluted with 2×SDS sample loading buffer and boiled. SDS-polyacrylamide gel electrophoresis was conducted using a standard protocol with equal amounts of total protein (10 or 20 μg) loaded per each lane. The separated proteins were transferred to nitrocellulose membranes and the membranes were blocked with 5% non-fat milk. […]

[8] = at the end of the drug exposure
[9] = rapid (within 24 h) and sustained (up to 96 h), vs vehicle (DMSO)

SMILES: Nc1ncn([C@@H]2O[C@H](CO)[C@@H](O)[C@H]2O)c(=O)n1 [5-Axacytidine]
- E-cadherin expression [1]: stimulate E-cadherin expression

SMILES: CN(C)C(=S)NN=C(c1ccccn1)c1ccccn1 [Dp44mT, Di(2-pyridyl)ketone 4,4-dimethyl-3-thiosemicarbazone]
- E-cadherin expression [1]: stimulate E-cadherin expression

SMILES: CN(C(=S)NN=C(c1ccccn1)c1ccccn1)C1CCCCC1 [DpC, di(2-pyridyl)ketone 4-cyclohexyl-4-methyl-3-thiosemicarbazone]
- E-cadherin expression [1]: stimulate E-cadherin expression

SMILES: O=C(NCCCNC(=O)c1cccnc1O)c1cc(-c2ccccc2)on1 [ML327, N-(3-(2-hydroxynicotinamido)propyl)-5-phenylisoxazole-3-carboxamide]
- Transepithelial flux of FITC-dextran [2, 8]: significantly inhibited FITC-dextran flux
- Transepithelial electrical resistance (TEER) ([2]; up to 96 h, vs vehicle (DMSO)): transiently increased TEER for the first 48 hours with its subsequent decrease at later times
- Transepithelial flux of FITC-dextran [3, 8]: significantly inhibited FITC-dextran flux
- Transepithelial electrical resistance (TEER) [3, 9]: increase in TEER
- Transepithelial flux of FITC-dextran ([4]; at the end of the drug exposure, T84): significantly inhibited FITC-dextran flux
- Transepithelial electrical resistance (TEER) [4, 9]: increase in TEER
- Cytokine-induced decrease in TEER [5]: prevents cytokine-induced disruption; also recorded: markedly attenuated
- Cytokine-induced increase in transepithelial FITC-dextran flux [5]: prevents cytokine-induced disruption; also recorded: markedly attenuated
- Cell migration during wound healing (wound closure) [6]: significantly increased migration
- Expression of signaling molecules (pro-migratory signaling) [7]: activation of pro-migratory signaling events

SMILES: CCCCCCCCCCCCC/C=C/[C@@H](O)[C@@H](N)COP(=O)(O)O [Sphingosine-1-Phosphate]
- E-cadherin expression [1]: stimulate E-cadherin expression

SMILES: CN(Cc1cnc2nc(N)nc(N)c2n1)c1ccc(C(=O)N[C@@H](CCC(=O)O)C(=O)O)cc1 [methotrexate]
- E-cadherin expression [1]: stimulated E-cadherin expression
